Measurements as given in ChEMBL document CHEMBL3044736, “Synthesis, characterization, solvatochromic properties, and antimicrobial evaluation of 5-acetyl-2-thioxo-dihydro-pyrimidine-4,6-dione-based chalcones” (2013).
Values after ≈ are worked out from the molar mass of the structure shown.

Experiments:
Format in all cases: functional
Streptococcus pyogenes [1] = assay: Antimicrobial activity against Streptococcus pyogenes MTCC 442 by agar cup diffusion method
Escherichia coli [2] = assay: Antimicrobial activity against Escherichia coli MTCC 443 by agar cup diffusion method
Klebsiella pneumoniae [3] = assay: Antimicrobial activity against Klebsiella pneumoniae MTCC 109 by agar cup diffusion method
Staphylococcus aureus [4] = assay: Antimicrobial activity against Staphylococcus aureus MTCC 96 by agar cup diffusion method
Streptococcus pyogenes [5] = assay: Antimicrobial activity against Streptococcus pyogenes MTCC 442 assessed as diameter of growth inhibition zone at 25 ug/ml after 18-24 hr by agar cup diffusion method; settings: read-out: DIZ
Pseudomonas aeruginosa [6] = assay: Antimicrobial activity against Pseudomonas aeruginosa MTCC 1688 assessed as diameter of growth inhibition zone at 100 ug/ml after 18-24 hr by agar cup diffusion method; settings: read-out: DIZ
Trichophyton rubrum [7] = assay: Antimicrobial activity against Trichophyton rubrum MTCC 296 assessed as diameter of growth inhibition zone at 50 ug/ml after 48-96 hr by agar cup diffusion method; settings: read-out: DIZ
Streptococcus pyogenes [8] = assay: Antimicrobial activity against Streptococcus pyogenes MTCC 442 assessed as diameter of growth inhibition zone at 250 ug/ml after 18-24 hr by agar cup diffusion method; settings: read-out: DIZ
Aspergillus clavatus [9] = assay: Antimicrobial activity against Aspergillus clavatus MTCC 1323 by agar cup diffusion method
Streptococcus pyogenes [10] = assay: Antimicrobial activity against Streptococcus pyogenes MTCC 442 assessed as diameter of growth inhibition zone at 100 ug/ml after 18-24 hr by agar cup diffusion method; settings: read-out: DIZ
Escherichia coli [11] = assay: Antimicrobial activity against Escherichia coli MTCC 443 assessed as diameter of growth inhibition zone at 250 ug/ml after 18-24 hr by agar cup diffusion method; settings: read-out: DIZ
Escherichia coli [12] = assay: Antimicrobial activity against Escherichia coli MTCC 443 assessed as diameter of growth inhibition zone at 50 ug/ml after 18-24 hr by agar cup diffusion method; settings: read-out: DIZ
Pseudomonas aeruginosa [13] = assay: Antimicrobial activity against Pseudomonas aeruginosa MTCC 1688 assessed as diameter of growth inhibition zone at 250 ug/ml after 18-24 hr by agar cup diffusion method; settings: read-out: DIZ
Aspergillus clavatus [14] = assay: Antimicrobial activity against Aspergillus clavatus MTCC 1323 assessed as diameter of growth inhibition zone at 50 ug/ml after 48-96 hr by agar cup diffusion method; settings: read-out: DIZ
Trichophyton rubrum [15] = assay: Antimicrobial activity against Trichophyton rubrum MTCC 296 assessed as diameter of growth inhibition zone at 100 ug/ml after 48-96 hr by agar cup diffusion method; settings: read-out: DIZ
Aspergillus clavatus [16] = assay: Antimicrobial activity against Aspergillus clavatus MTCC 1323 assessed as diameter of growth inhibition zone at 25 ug/ml after 48-96 hr by agar cup diffusion method; settings: read-out: DIZ
Pseudomonas aeruginosa [17] = assay: Antimicrobial activity against Pseudomonas aeruginosa MTCC 1688 assessed as diameter of growth inhibition zone at 50 ug/ml after 18-24 hr by agar cup diffusion method; settings: read-out: DIZ
Penicillium [18] = assay: Antimicrobial activity against Penicillium wild strain assessed as diameter of growth inhibition zone at 25 ug/ml after 48-96 hr by agar cup diffusion method; settings: read-out: DIZ
Aspergillus clavatus [19] = assay: Antimicrobial activity against Aspergillus clavatus MTCC 1323 assessed as diameter of growth inhibition zone at 250 ug/ml after 48-96 hr by agar cup diffusion method; settings: read-out: DIZ
Staphylococcus aureus [20] = assay: Antimicrobial activity against Staphylococcus aureus MTCC 96 assessed as diameter of growth inhibition zone at 50 ug/ml after 18-24 hr by agar cup diffusion method; settings: read-out: DIZ
Trichophyton rubrum [21] = assay: Antimicrobial activity against Trichophyton rubrum MTCC 296 assessed as diameter of growth inhibition zone at 250 ug/ml after 48-96 hr by agar cup diffusion method; settings: read-out: DIZ
Escherichia coli [22] = assay: Antimicrobial activity against Escherichia coli MTCC 443 assessed as diameter of growth inhibition zone at 100 ug/ml after 18-24 hr by agar cup diffusion method; settings: read-out: DIZ
Trichophyton rubrum [23] = assay: Antimicrobial activity against Trichophyton rubrum MTCC 296 by agar cup diffusion method
Streptococcus pyogenes [24] = assay: Antimicrobial activity against Streptococcus pyogenes MTCC 442 assessed as diameter of growth inhibition zone at 50 ug/ml after 18-24 hr by agar cup diffusion method; settings: read-out: DIZ
Klebsiella pneumoniae [25] = assay: Antimicrobial activity against Klebsiella pneumoniae MTCC 109 assessed as diameter of growth inhibition zone at 100 ug/ml after 18-24 hr by agar cup diffusion method; settings: read-out: DIZ
Penicillium [26] = assay: Antimicrobial activity against Penicillium wild strain assessed as diameter of growth inhibition zone at 50 ug/ml after 48-96 hr by agar cup diffusion method; settings: read-out: DIZ
Pseudomonas aeruginosa [27] = assay: Antimicrobial activity against Pseudomonas aeruginosa MTCC 1688 assessed as diameter of growth inhibition zone at 25 ug/ml after 18-24 hr by agar cup diffusion method; settings: read-out: DIZ
Candida albicans [28] = assay: Antimicrobial activity against Candida albicans MTCC 227 assessed as diameter of growth inhibition zone at 50 ug/ml after 48-96 hr by agar cup diffusion method; settings: read-out: DIZ
Pseudomonas aeruginosa [29] = assay: Antimicrobial activity against Pseudomonas aeruginosa MTCC 1688 by agar cup diffusion method
Penicillium [30] = assay: Antimicrobial activity against Penicillium wild strain assessed as diameter of growth inhibition zone at 100 ug/ml after 48-96 hr by agar cup diffusion method; settings: read-out: DIZ
Klebsiella pneumoniae [31] = assay: Antimicrobial activity against Klebsiella pneumoniae MTCC 109 assessed as diameter of growth inhibition zone at 50 ug/ml after 18-24 hr by agar cup diffusion method; settings: read-out: DIZ
Candida albicans [32] = assay: Antimicrobial activity against Candida albicans MTCC 227 by agar cup diffusion method
Staphylococcus aureus [33] = assay: Antimicrobial activity against Staphylococcus aureus MTCC 96 assessed as diameter of growth inhibition zone at 25 ug/ml after 18-24 hr by agar cup diffusion method; settings: read-out: DIZ
Staphylococcus aureus [34] = assay: Antimicrobial activity against Staphylococcus aureus MTCC 96 assessed as diameter of growth inhibition zone at 250 ug/ml after 18-24 hr by agar cup diffusion method; settings: read-out: DIZ
Staphylococcus aureus [35] = assay: Antimicrobial activity against Staphylococcus aureus MTCC 96 assessed as diameter of growth inhibition zone at 100 ug/ml after 18-24 hr by agar cup diffusion method; settings: read-out: DIZ
Candida albicans [36] = assay: Antimicrobial activity against Candida albicans MTCC 227 assessed as diameter of growth inhibition zone at 25 ug/ml after 48-96 hr by agar cup diffusion method; settings: read-out: DIZ
Aspergillus clavatus [37] = assay: Antimicrobial activity against Aspergillus clavatus MTCC 1323 assessed as diameter of growth inhibition zone at 100 ug/ml after 48-96 hr by agar cup diffusion method; settings: read-out: DIZ
Candida albicans [38] = assay: Antimicrobial activity against Candida albicans MTCC 227 assessed as diameter of growth inhibition zone at 250 ug/ml after 48-96 hr by agar cup diffusion method; settings: read-out: DIZ
Escherichia coli [39] = assay: Antimicrobial activity against Escherichia coli MTCC 443 assessed as diameter of growth inhibition zone at 25 ug/ml after 18-24 hr by agar cup diffusion method; settings: read-out: DIZ
Penicillium [40] = assay: Antimicrobial activity against Penicillium wild strain by agar cup diffusion method
Candida albicans [41] = assay: Antimicrobial activity against Candida albicans MTCC 227 assessed as diameter of growth inhibition zone at 100 ug/ml after 48-96 hr by agar cup diffusion method; settings: read-out: DIZ
Klebsiella pneumoniae [42] = assay: Antimicrobial activity against Klebsiella pneumoniae MTCC 109 assessed as diameter of growth inhibition zone at 25 ug/ml after 18-24 hr by agar cup diffusion method; settings: read-out: DIZ
Trichophyton rubrum [43] = assay: Antimicrobial activity against Trichophyton rubrum MTCC 296 assessed as diameter of growth inhibition zone at 25 ug/ml after 48-96 hr by agar cup diffusion method; settings: read-out: DIZ
Penicillium [44] = assay: Antimicrobial activity against Penicillium wild strain assessed as diameter of growth inhibition zone at 250 ug/ml after 48-96 hr by agar cup diffusion method; settings: read-out: DIZ
Klebsiella pneumoniae [45] = assay: Antimicrobial activity against Klebsiella pneumoniae MTCC 109 assessed as diameter of growth inhibition zone at 250 ug/ml after 18-24 hr by agar cup diffusion method; settings: read-out: DIZ

`O=C(O)c1cn(C2CC2)c2cc(N3CCNCC3)c(F)cc2c1=O` [CIPROFLOXACIN] showed an MIC (Streptococcus pyogenes [1]) of 50 µg/mL (≈ 151 µM), an MIC (Escherichia coli [2]) of 25 µg/mL (≈ 75.4 µM) and an MIC (Klebsiella pneumoniae [3]) of 25 µg/mL (≈ 75.4 µM). For the same compound, the MIC (Staphylococcus aureus [4]) was 100 µg/mL (≈ 302 µM).
In the case of `COc1ccc(/C=C/C(=O)C2C(=O)NC(=S)NC2=O)cc1`, the zone of inhibition at 25 µg/mL (Streptococcus pyogenes [5]) is reported as 15 mm, the zone of inhibition at 100 µg/mL (Pseudomonas aeruginosa [6]) is reported as 18 mm and the zone of inhibition at 50 µg/mL (Trichophyton rubrum [7]) is reported as 20 mm. The zone of inhibition at 250 µg/mL (Streptococcus pyogenes [8]) was 21 mm, the MFC (Aspergillus clavatus [9]) was 1000 µg/mL (≈ 3290 µM) and the MIC (Aspergillus clavatus [9]) was 500 µg/mL (≈ 1640 µM). The zone of inhibition at 100 µg/mL (Streptococcus pyogenes [10]) was 20 mm, the zone of inhibition at 250 µg/mL (Escherichia coli [11]) was 21 mm and the zone of inhibition at 50 µg/mL (Escherichia coli [12]) was 18 mm. For the same compound, the MBC (Streptococcus pyogenes [1]) was 250 µg/mL (≈ 821 µM), the MIC (Streptococcus pyogenes [1]) was 200 µg/mL (≈ 657 µM) and the zone of inhibition at 250 µg/mL (Pseudomonas aeruginosa [13]) was 21 mm. It also gave a zone of inhibition at 50 µg/mL (Aspergillus clavatus [14]) of 21 mm, a zone of inhibition at 100 µg/mL (Trichophyton rubrum [15]) of 21 mm and a zone of inhibition at 25 µg/mL (Aspergillus clavatus [16]) of 20 mm. It also gave a zone of inhibition at 50 µg/mL (Pseudomonas aeruginosa [17]) of 17 mm, a zone of inhibition at 25 µg/mL (Penicillium [18]) of 21 mm and a zone of inhibition at 250 µg/mL (Aspergillus clavatus [19]) of 24 mm. For the same compound, the zone of inhibition at 50 µg/mL (Staphylococcus aureus [20]) was 17 mm, the zone of inhibition at 250 µg/mL (Trichophyton rubrum [21]) was 22 mm and the zone of inhibition at 100 µg/mL (Escherichia coli [22]) was 20 mm. For the same compound, the MFC (Trichophyton rubrum [23]) was greater than 1000 µg/mL, the MIC (Trichophyton rubrum [23]) was greater than 1000 µg/mL and the zone of inhibition at 50 µg/mL (Streptococcus pyogenes [24]) was 18 mm. The zone of inhibition at 100 µg/mL (Klebsiella pneumoniae [25]) was 14 mm, the zone of inhibition at 50 µg/mL (Penicillium [26]) was 21 mm and the zone of inhibition at 25 µg/mL (Pseudomonas aeruginosa [27]) was 13 mm. It also gave a zone of inhibition at 50 µg/mL (Candida albicans [28]) of 21 mm, an MBC (Pseudomonas aeruginosa [29]) of 125 µg/mL (≈ 411 µM) and an MIC (Pseudomonas aeruginosa [29]) of 100 µg/mL (≈ 329 µM). The zone of inhibition at 100 µg/mL (Penicillium [30]) was 23 mm, the zone of inhibition at 50 µg/mL (Klebsiella pneumoniae [31]) was 13 mm and the MFC (Candida albicans [32]) was 1000 µg/mL (≈ 3290 µM). The MIC (Candida albicans [32]) was greater than 1000 µg/mL, the zone of inhibition at 25 µg/mL (Staphylococcus aureus [33]) was 13 mm and the zone of inhibition at 250 µg/mL (Staphylococcus aureus [34]) was 21 mm. For the same compound, the zone of inhibition at 100 µg/mL (Staphylococcus aureus [35]) was 18 mm, the MBC (Escherichia coli [2]) was 250 µg/mL (≈ 821 µM) and the MIC (Escherichia coli [2]) was 200 µg/mL (≈ 657 µM). It also gave a zone of inhibition at 25 µg/mL (Candida albicans [36]) of 18 mm, a zone of inhibition at 100 µg/mL (Aspergillus clavatus [37]) of 23 mm and a zone of inhibition at 250 µg/mL (Candida albicans [38]) of 24 mm. The zone of inhibition at 25 µg/mL (Escherichia coli [39]) was 15 mm, the MFC (Penicillium [40]) was 500 µg/mL (≈ 1640 µM) and the MIC (Penicillium [40]) was 500 µg/mL (≈ 1640 µM). It also gave an MBC (Klebsiella pneumoniae [3]) of 250 µg/mL (≈ 821 µM), an MIC (Klebsiella pneumoniae [3]) of 200 µg/mL (≈ 657 µM) and a zone of inhibition at 100 µg/mL (Candida albicans [41]) of 24 mm. It also gave a zone of inhibition at 25 µg/mL (Klebsiella pneumoniae [42]) of 11 mm, an MBC (Staphylococcus aureus [4]) of 250 µg/mL (≈ 821 µM) and an MIC (Staphylococcus aureus [4]) of 200 µg/mL (≈ 657 µM). It also gave a zone of inhibition at 25 µg/mL (Trichophyton rubrum [43]) of 19 mm, a zone of inhibition at 250 µg/mL (Penicillium [44]) of 25 mm and a zone of inhibition at 250 µg/mL (Klebsiella pneumoniae [45]) of 17 mm.
In the case of `COC1=CC(=O)C[C@@H](C)[C@]12Oc1c(Cl)c(OC)cc(OC)c1C2=O` [GRISEOFULVIN], the MIC (Aspergillus clavatus [9]) is reported as 100 µg/mL (≈ 283 µM), the MIC (Trichophyton rubrum [23]) is reported as 500 µg/mL (≈ 1420 µM) and the MIC (Candida albicans [32]) is reported as 100 µg/mL (≈ 283 µM). It also gave an MIC (Penicillium [40]) of 100 µg/mL (≈ 283 µM).
